Measured values: patent US20240199572A1, “COMPOUNDS, COMPOSITIONS, AND METHODS FOR TREATING TYPE 2 DIABETES AND DEMENTIA” (THE BOARD OF TRUSTEES OF THE UNIVERSITY OF ILLINOIS, priority 2021, published 2024)

Tests used:
J774 cells = test: siRNA knockdown of LXRα/LXRβ in J774 cells; format: cell-based
Experimental: siRNA Knockdown. J774 cells were plated in 24-well plates in serum-containing medium, to which an additional 100 μL of medium containing 10 pmol of siRNA and 3 μL of LIPOFECTAMINE® RNAIMAX® transfection reagent (Thermo Fisher Scientific) were added. After 24 hours, serum-free medium containing 10 μM C12-57 or vehicle control was added to each well for 24 hours. Cells were lysed and analyzed per qPCR and immunoblot procedures above. siRNAs used: Thermo Fisher 188584 (Nr1h3 silencer), 186947 (Nr1h2 silencer), and AM4611 (Silencer Negative Control siRNA #1).

SREBF1 mRNA = SREBF1 mRNA - HepG2 (qRT-PCR); format: cell-based, human
Excerpt: (§1) qRT-PCR. For cell samples, treated cells were lysed with RLT plus lysis buffer (Qiagen). RNA was isolated with Qiagen RNEASY® Plus columns per manufacturer instructions, then reverse-transcribed to cDNA using […]® III Reverse Transcriptase (200 U/μL, Invitrogen) per supplier protocol. qPCR experiments were either performed with TAQMAN® gene expression master mix (Invitrogen) on a StepOne™ qPCR instrument or with […]® SYBR® Green SuperMix (Quanta Biosciences) on CFX Connect™ Real-Time PCR Detection System (BioRad), with fold-change quantified by ΔΔCt. For animal samples, 100 mg tissue was homogenized in 1 mL acid-guanidinium-phenol based reagent sold under the tradename TRIZOL® (Ambion), mixed vigorously in chloroform, and separated by centrifugation. Aqueous layer containing RNA was added to Qiagen RNEASY® Plus column; remaining stops were as described above for cell lysates.

ABCA1 protein [1] = test: ABCA1 protein - HepG2 (immunoblot); format: cell-based; conditions: HepG2 hepatocarcinoma cells
Experimental: (§2) In vitro Immunoblot. Cells were lysed with RIPA buffer (Sigma) containing protease/phosphatase inhibitors (Cocktails II and III, respectively, EMD Millipore). Protein was quantified by BCA assay (Thermo Fisher Scientific). Denatured proteins were separated by gel electrophoresis (NuPage™ 4-12% Bis-Tris, Invitrogen) in MOPS running buffer at 120 V for 1 hour. Proteins were transferred to PDVF membranes (iBlot2). Membrane was blocked in 5% skim milk for 1 hour, incubated with primary antibody at 4° C. overnight, washed with TBST, and then incubated with HRP-linked secondary antibody (Cell Signaling Technology) for 1 hour at room temperature. After TBST wash, membrane was imaged using SUPERSIGNAL® West Femto™ substrate (Thermo Fisher Scientific) on Azure Biosystems c400 imager. Antibodies used: Abcam ab18180 (ABCA1, RRID:AB 444302), Thermo Fisher MA5-11685 (SREBP1, RRID:AB_10984077), Invitrogen MA5-15738 (GAPDH, RRID:AB_10977387).

ABCA1 mRNA [2] = test: ABCA1 mRNA - HepG2 (qRT-PCR); format: cell-based, human
Excerpt: as §1

ABCA1 mRNA [3] = test: ABCA1 mRNA - J774 (qRT-PCR); format: cell-based, mouse
Excerpt: as §1

LXRβ = biological target: T1, LXRβ (Homo sapiens, UniProt P55055); test: LanthaScreen TR-FRET coactivator assay LXRβ; format: biochemical; conditions: read-out: EC50, LXRβ agonism, coactivator recruitment via TR-FRET
T1 construct: purchased Thermo Fisher Scientific
T1 sequence (P55055 212-460 limits assumed): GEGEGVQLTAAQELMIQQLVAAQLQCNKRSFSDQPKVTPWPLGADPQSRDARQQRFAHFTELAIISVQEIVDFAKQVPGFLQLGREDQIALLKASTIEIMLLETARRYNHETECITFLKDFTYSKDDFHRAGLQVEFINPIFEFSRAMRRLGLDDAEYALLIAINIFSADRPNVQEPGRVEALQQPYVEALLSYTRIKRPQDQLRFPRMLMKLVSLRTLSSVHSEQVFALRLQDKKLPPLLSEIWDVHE
Experimental: TR-FRET Receptor Binding Assays. LanthaScreen” TR-FRET coactivator assay kits for LXRβ (Thermo Fisher Scientific) and PPARγ (Thermo Fisher Scientific) were performed according to manufacturer instructions using low-binding black 384-well plates and Synergy Neo2 plate reader. […] Each compound dose was performed in quadruplicate on each plate, and each experiment was performed in triplicate.

ABCA1 protein [4] = test: ABCA1 protein - J774 (immunoblot); format: cell-based
Experimental: as §2

RXRγ = biological target: T2, RXRγ (Homo sapiens, UniProt P48443); test: RXRγ NHR screen, antagonist mode; conditions: cell-based β-gal reporter assay, 10 μM
T2 sequence (P48443 1-463): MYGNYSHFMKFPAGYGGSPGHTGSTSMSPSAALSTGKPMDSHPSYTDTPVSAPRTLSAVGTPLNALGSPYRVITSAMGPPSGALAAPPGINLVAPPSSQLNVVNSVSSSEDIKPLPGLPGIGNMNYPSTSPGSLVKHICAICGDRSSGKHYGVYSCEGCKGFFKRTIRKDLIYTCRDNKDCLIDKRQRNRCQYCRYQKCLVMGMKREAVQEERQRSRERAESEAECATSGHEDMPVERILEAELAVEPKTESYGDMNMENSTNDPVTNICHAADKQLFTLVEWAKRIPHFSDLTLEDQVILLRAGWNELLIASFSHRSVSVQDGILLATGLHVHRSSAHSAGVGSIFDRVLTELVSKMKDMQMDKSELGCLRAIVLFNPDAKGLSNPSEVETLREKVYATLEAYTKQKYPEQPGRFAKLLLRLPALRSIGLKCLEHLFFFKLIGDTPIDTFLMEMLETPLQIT
Experimental: Receptor Binding Assays. Nuclear hormone (NHR) assays were performed by DiscoverX (Fremont, CA) on their NHR-Scan platform of cell-based protein-protein interaction assays. This platform uses a […] reporter that activates upon interaction of full-length receptor protein with steroid coactivator receptor peptides. In agonist mode, activity of CL2-57 at 10 μM was compared to maximal activity of published positive control agonists; in antagonist mode, reduction in activity with 10 μM CL2-57 from that observed at […] of published agonists was quantified.

SMILES: CCOC(=O)c1cccc(NC(=O)c2sc(Cl)cc2S(=O)(=O)N(C)c2ccc(OCC)c(OCC)c2)c1 [CL2-57, ethyl 3-(5-chloro-3-(N-(3,4-diethoxyphenyl)-N-methylsulfamoyl)thiophene-2-carboxamido) benzoate]
- ABCA1 induction under LXR siRNA knockdown (J774 cells; 10 μM, J774): mediated by LXRβ
- Induction of Abcg1 under LXR siRNA knockdown (J774 cells; J774): reduced by LXRβ knockdown
- Induction of Slc2a1 (GLUT1) under LXR siRNA knockdown (J774 cells; J774): reduced by LXRβ knockdown
- Irs1 increases under LXR siRNA knockdown (J774 cells; J774): not affected by loss of either LXR isoform
- LXR target gene Apoe (J774 cells; J774 cells): not significantly affected
- SREBF1 mRNA - HepG2, activity of CL2-57 (10 μM) as % of T0901317 (1 μM) (SREBF1 mRNA): 39%
- ABCA1 protein (ABCA1 protein [1]): Increased
- ABCA1 mRNA - HepG2, activity of CL2-57 (10 μM) as % of T0901317 (1 μM) (ABCA1 mRNA [2]; 10 μM): 60%
- ABCA1 mRNA (ABCA1 mRNA [2]; HepG2 hepatocarcinoma cells): Increased
- ABCA1 mRNA - J774, activity of CL2-57 (10 μM) as % of T0901317 (1 μM) (ABCA1 mRNA [3]; 10 μM): 90%
- ABCA1 mRNA (ABCA1 mRNA [3]; J774 macrophage cells): Increased
- EC50 (LXRβ): 1.3 µM
- ABCA1 protein - J774, activity of CL2-57 (10 μM) as % of T0901317 (1 μM) (ABCA1 protein [4]; 10 μM): 132%
- ABCA1 protein (ABCA1 protein [4]; J774 macrophage cells): Increased
- Functional mode at RXRγ (RXRγ): weak antagonist
